{
  "source": "patent US9593144B2",
  "about": "“FPR1 antagonist derivatives and use thereof” (CHANG GUNG UNIVERSITY, priority 2014, dated 2017)",
  "test_system": "human neutrophils",
  "assay": "cells",
  "type": "cell-based",
  "details": "for IC50: Neutrophil",
  "source_text": "Tables 5 and 6 explore whether there is an anti-inflamatory effect in the dipeptide derivatives. Because ferricytochrome c cannot penetrate cell membranes, it reacts with superoxide anion extracellularly. Also, there are absorptive reactions at 550 nm, and differences among the absorptive reactions can be used to evaluate the influence on the release of superoxide anion. The elastase is released by degranulation as the neutrophil is activated. Tables 5 and 6 use the substrate, MeO-Suc-Ala-Ala-Pro-Val-p-nitroanilide, with the specificity for reacting with the elastase so as to evaluate the influence of the candidate compound on the elastase release.\nBlood was taken from healthy human donors (20-32 years old) by venipuncture, following a protocol approved by the Institutional Review Board at Chang Gung Memorial Hospital. Neutrophils were isolated by a standard method of dextran sedimentation prior to centrifugation in a Ficoll Hypaque gradient and the hypotonic lysis of erythrocytes.\nThe evaluation of O2.^− generation was based on the SOD-inhibitable reduction of ferricytochrome c. In brief, after supplementation with 0.5 mg ml^−1 ferricytochrome c and 1 mM Ca^2+, neutrophils were equilibrated at 37° C. for 2 min and incubated with drugs […].",
  "note": "Where two headings read alike, the source gives them in different places. Square brackets hold non-standard residues; d marks the D form. Peptide text beside a SMILES is read from it. * marks the point of attachment. Bz = O=C(c1ccccc1)*",
  "data": [
    {"smiles": "COC(=O)[C@@H](Cc1ccccc1)NC(=O)[C@H](Cc1c[nH]c2ccccc12)NC(=O)c1ccccc1", "note": "[Compound 3, N—(N-Benzoyl-L-tryptophanyl)-D-phenylalanine methyl ester] (Bz-Trp-[dF]-OMe)", "values": [
      {"measurement": "IC50", "setting": "WKYMVm, mean ± SEM, n = 4 or 8, Table 5, read-out: Superoxide anion WKYMVm IC50", "value": "4980 ± 270", "unit": "nM"},
      {"measurement": "IC50", "setting": "WKYMVm/CB, mean ± SEM, n = 3, Table 4, read-out: WKYMVm/CB O2•− generation (IC50)", "value": "4830 ± 660", "unit": "nM"},
      {"measurement": "IC50", "setting": "human neutrophils triggered by fMLF, read-out: IC50 of inhibitory effect (superoxide anion, fMLF) restated in text", "value": "320 ± 30", "unit": "nM"},
      {"measurement": "IC50", "setting": "human neutrophils, fMLF/CB, mean ± SEM, n = 3, Table 4, read-out: fMLF/CB O2•− generation (IC50)", "value": "230 ± 20", "unit": "nM"},
      {"measurement": "IC50", "setting": "human neutrophils, fMLF, mean ± SEM, n = 4 or 8, Table 5, read-out: Superoxide anion fMLF IC50", "value": "320 ± 30", "unit": "nM"},
      {"measurement": "IC50", "setting": "human neutrophils, fMLP/CB, mean ± SEM, n = 3, Table 1, read-out: Anti-inflammation O2•− generation (IC50)", "value": "230 ± 20", "unit": "nM"},
      {"measurement": "selectivity for FPR1/2 and FPR1 (difference WKYMVm vs fMLF)", "setting": "superoxide anion, WKYMVm vs fMLF", "value": 15, "unit": "fold"}
    ]}
  ]
}
